Data: patent publication US10487054B2, “Therapeutic compounds” (REGENTS OF THE UNIVERSITY OF MINNESOTA, priority 2017, dated 2019)

Columns and labels:
Format in all cases: cell-based, human
[1] = test system: A431 cells; assay: Crystal violet staining cell proliferation assay; conditions: dose-dependent, several days
Procedure: (§1) Cells were exposed to EGF (10 ng/ml) and treated with increasing concentrations of compound 1. Representative photographs are shown and data are presented as mean values±S.D. from triplicate experiments. […] Cells were treated with different concentrations of compound 1 for several days and cell proliferation was determined by a crystal violet staining assay.
(§2) Cell proliferation was determined by a crystal violet staining assay. Cells (3×10^4/well) were seeded into 24-well plates. After an overnight incubation, cells were treated with different concentrations of compound 1 and incubated for several days. Then, each well was washed 3 times with phosphate buffered saline (PBS) and stained with 0.2% (w/v) crystal violet in 2% (v/v) ethanol. After 10 min, cells were washed 3 times with distilled water, and the remaining dye was dissolved in 0.5% (w/v) sodium dodecyl sulfate in 50% (v/v) ethanol. Absorbance was measured at an optical density of 540 nm using the Thermo Multiskan plate-reader (Thermo Fisher Scientific).

[2] = test system: SCC12 cells; assay: Crystal violet staining cell proliferation assay; conditions: dose-dependent, several days
Procedure: as §1, §2

[3] = test system: HaCaT cells; assay: Western blot of SUV-induced TOPK downstream signaling
Procedure: The cells were cultured, treated for 4 h with different concentrations of compound 1 and then exposed to SUV (60 kJ UVA/m^2 and 2.9 kJ UVB/m^2), followed by an additional 15-minute incubation. Cells were harvested and the levels of phosphorylated and total proteins were determined by Western blot analysis with specific antibodies as indicated. […] The cells were cultured and treated with different concentrations of compound 1 for 24 h. Cells were harvested and the levels of phosphorylated and total proteins were determined by Western blot analysis with specific antibodies as indicated. […] For the luciferase assay, JB6 P+ cells stably transfected with an AP-1 luciferase reporter plasmid were cultured. After starvation for 24 h, cells were treated for 1 h with compound 1 (0, 1.25, 2.5, or 5 μM). Cells were then exposed to SUV (60 kJ UVA/m^2 and 2.9 kJ UVB/m^2) and harvested 3 h later. Luciferase activity was measured and AP-1 activity is expressed relative to control cells without SUV treatment. […] Knockdown of TOPK in A431 cell line (left). Stable control or TOPK knockdown cells were co-transfected with 100 ng of the AP-1 luciferase reporter plasmid and 50 ng of internal control […] plasmid. Cells were transfected using iMFectin poly DNA transfection reagent (GenDEPOT) according to the manufacturer's instructions. After 12 h of transfection, cells were incubated with the different concentrations of compound 1 for another 24 h. Luciferase and […] activities were measured using reagents included in the reporter assay system (right). Data are shown as mean values±S.D obtained from triplicate experiments. Significant differences were evaluated using one-way ANOVA and the asterisks (*) indicate a significant effect (*, p<0.05; **, p<0.001; ***, p<0.0001). […]
HaCaT or JB6 P+ cells (1×10^6) were cultured in 10-cm dishes for 24 h and then the medium was replaced with 0.1% FBS medium for 24 h. […] Protein concentration in cell lysates was determined using a protein assay kit (Bio-Rad Laboratories, Hercules, Calif.). […]

Compound: O=C1Nc2ccc(C34CC5CC(CC(C5)C3)C4)cc2C1=NO [compound 1, 5-(adamantan-1-yl)-3-(hydroxyimino)indolin-2-one]
- cell proliferation [1]: strongly decreased
- cell proliferation [2]: strongly decreased
- phosphorylated c-Jun protein levels ([3]; HaCaT cells exposed to SUV): significantly suppressed
- phosphorylation of ERK1/2, p38, and JNKs ([3]; HaCaT cells, 4 h treatment then SUV (60 kJ UVA/m2 and 2.9 kJ UVB/m2)): markedly suppressed
- phosphorylated and total TOPK protein levels ([3]; Western blot, cell lines not specified in the sentence (FIG. 3A, 3B)): no significant changes
